Key:
Assay type in all cases: cell-based
ES2 cells [1] = test: Cell proliferation capacity using BrdU, ES2; conditions: for proliferative capability (BrdU incorporation): agent alone; for proliferative capability reduced by cisplatin (BrdU): combined treatment with cisplatin; for proliferative capability reduced by paclitaxel (BrdU): combined treatment with paclitaxel
Description: (§1) Epithelial ovarian cancer OV90 and ES2 cells were cultured in 6 wells, and a non-specific control and target oligonucleotide were transfected using Lipofectamine 2000 (Invitrogen). All oligonucelotides were synthesized by to Bioneer. Oligonucleotide and Lipofectamine 2000 were diluted in Opti-MEM reduced serum medium (Gibco, Cat No: 32985070) and then treated with cells. After 6 h of incubation at 37° C. in a 5% CO2 incubator, the medium was replaced with a medium containing FBS.
(§2) An experiment was performed according to the manufacturer's manual using the BrdU kit (Cat No: 1167229001, Roche) to confirm the change in the proliferation ability of epithelial ovarian cancer cells. After 48 hours of incubation, 10 μM BrdU was additionally added to each well and incubated for 2 hours at 37° C./5% CO2 in an incubator. After labeling the epithelial ovarian cancer cells with BrdU and fixing the cells, they were incubated with anti-BrdU-POD solution at room temperature for 90 minutes, and then washed three times. Finally, the cells were reacted with 100 μl of 3,3′, 5,5′-tetramethylbenzidine substrate, and the cell proliferation ability was analyzed by measuring the absorbance at 370 nm and 492 nm using an ELISA reader.

PCNA [2] = test: PCNA expression (qPCR, immunofluorescence), OV90; conditions: OV90 cells; for PCNA expression: anticancer drug alone; for PCNA expression reduced by cisplatin: combined treatment with cisplatin
Description: (§3) cDNA was synthesized from 1 μg of RNA using AccuPower RT PreMix (Bioneer, Daejeon, Korea). Gene expression was measured using SYBR Green (Sigma) and the StepOnePlus Real-Time PCR system (Applied Biosystems, Foster City, Calif.). PCR conditions were incubated at 95° C. for 3 minutes, then 95° C. 30 seconds, 60° C. 30 seconds, and 72° C. 3 minutes conditions were amplified 40 times, and normalized based on the GAPDH expression level.
(§4) Transfected epithelial ovarian cancer cells were fixed with methanol for 10 minutes and treated with PCNA antibody diluted in 1:100. After that, after washing twice with PBS containing 0.1% bovine serum albumin (BSA), the secondary antibody goat anti-mouse IgG Alexa 488 (catalog number: A11017, Invitrogen, Carlsbad, Calif.) was added to antibody dilution buffer so as to be diluted in 1:200 and incubated for 1 hour at room temperature.
(§5) After washing the cells with 0.1% BSA-PBS, DAPI staining was additionally performed to allow simultaneous observation of the target protein as well as the nucleus. After finishing the experiment, cells were observed and photographed using an LSM710 (Carl Zeiss, Thornwood, N.Y., USA) confocal microscope.

OV90 cells [3] = test: Cell proliferation capacity using BrdU, OV90; conditions: for proliferative capability (BrdU incorporation): agent alone; for proliferative capability reduced by cisplatin (BrdU): combined treatment with cisplatin; for proliferative capability reduced by paclitaxel (BrdU): combined treatment with paclitaxel
Description: as §1, §2

PCNA [4] = test: PCNA expression (qPCR, immunofluorescence), ES2; conditions: ES2 cells; for PCNA expression: anticancer drug alone; for PCNA expression reduced by cisplatin: combined treatment with cisplatin
Description: as §3, §4, §5

LHX6 [5] = test: LHX6 gene expression after oligonucleotide transfection (qPCR), ES2; conditions: ES2 cells
Description: as §3, §1
(§6) Next, to analyze whether miR-214-3p can alter the characteristics of epithelial ovarian cancer cells, OV90 and ES2 cells, epithelial ovarian cancer cell lines, were transfected with a mimic for miR-214 and an inhibitor for miR-214-3p (SEQ ID NO: 2: 5′-ACUGCCUGUCUGUGCCUGCUGU-3′).

OV90 cells [6] = test: Apoptosis by annexin V and propidium iodide staining, OV90
Description: (§7) In order to confirm the change in the apoptosis effect of epithelial ovarian cancer cells, an experiment was performed using the FITC Annexin V cell death diagnostic kit I (BD Biosciences). Using trypsin, the cells were removed from the culture dish, washed with PBS, and the cells were slowly mixed using 1 mL of 1× binding buffer and then centrifuged to obtain a cell pellet.
(§8) Next, the cells were suspended and cultured with 200 μL of 1× binding buffer, put into 100 μL of a brown 1.5 mL tube, and cells were mixed with 5 μL of Annexin V and 5 μL of PI, and then stained at room temperature for 15 minutes. After that, 400 μL of 1×binding buffer was added and the stained solution was transferred to a 5 mL FACS tube, and then the fluorescence intensity was analyzed using a flow cytometer to measure the number of apoptotic cells.

ES2 cells [7] = test: Apoptosis by annexin V and propidium iodide staining, ES2
Description: as §7, §8

OV90 cells [8] = test: Mitochondrial membrane potential by JC-1 staining, OV90
Description: (§9) JC-1 mitochondrial membrane potential (MMP) changes were measured using a mitochondria staining kit (Cat No: CS0390, Sigma-Aldrich). 5×10^5 ES2 and OV90 cells were each aliquoted into 6 wells, and the cells were cultured until 70 to 80% abundance of the culture dish appeared. Thereafter, the miR-214-3p inhibitor was dose-dependently treated and cultured in a 37° C./5% CO2 incubator for 48 hours. Thereafter, cells were collected from the culture dish using trypsin and centrifuged to obtain a cell pellet. Cells were dissolved in JC-1 staining solution and incubated for 20 minutes at 37° C./5% CO2 incubator. The stained cells were centrifuged again, washed with 1×JC-1 staining buffer, and then fluorescence intensity was analyzed using a flow cytometer.

OV90 cells [9] = test: Intracellular ROS measurement using DCFH-DA, OV90
Description: (§10) ES2 and OV90 cells were collected through trypsin and centrifuged to obtain a cell pellet. After washing once with PBS, 10 μM of DCFH-DA was incubated in an incubator at 37° C. for 30 minutes. Thereafter, the cells were washed twice with PBS, and a miR-214-3p inhibitor was added thereto and incubated in an incubator at 37° C. for 1 hour. Treated cells were washed again with PBS and analyzed for DCF fluorescence intensity using flow cytometry.

OV90 cells [10] = test: Cell cycle analysis using propidium iodide staining, OV90; conditions: 48 hours
Description: (§11) In order to confirm the cell cycle change of ovarian cancer cells by the miR-214-3p inhibitor, 5×10^5 cells were cultured in 6 wells until 70 to 80% abundance appeared. Thereafter, miR-214-3p inhibitors were treated in a dose-dependent manner (10, 20, 40 nM) and cultured in a 37° C./5% CO2 incubator for 48 hours. Then, using trypsin, the cells were removed from the culture dish, washed with PBS, and the cells were slowly mixed using 1 mL of 1× binding buffer, and then centrifuged to obtain a cell pellet.
(§12) Next, the cells were suspended and cultured with 200 μL of 1× binding buffer, put in 100 μL in a brown 1.5 mL tube, and 5 μL of RNase and 5 μL of PI were mixed together to stain the cells for 1 hour at room temperature. After that, 400 μL of 1× binding buffer was added, the stained solution was transferred to a 5 mL FACS tube, and the fluorescence intensity was analyzed using a flow cytometer to measure the number of cells corresponding to each cell cycle.

OV90 cells [11] = test: Cell migration, OV90
ES2 cells [12] = test: Cell cycle analysis using propidium iodide staining, ES2; conditions: 48 hours
Description: as §11, §12

ES2 cells [13] = test: Intracellular ROS measurement using DCFH-DA, ES2
Description: as §10

LHX6 [14] = test: LHX6 gene expression after oligonucleotide transfection (qPCR), OV90; conditions: OV90 cells
Description: as §3, §1, §6

ES2 cells [15] = test: Cell migration, ES2
OV90 cells [16] = test: Intracellular calcium concentration by fluo-4 staining, OV90
Description: (§13) To check the intracellular calcium concentration of ovarian cancer cells, 3 μM of fluo-4 acetoxymethyl ester (AM) (Invitrogen) was used. First, 5×10^5 cells were cultured in 6 wells. Thereafter, the miR-214-3p inhibitor was dose-dependently treated and cultured in a 37° C./5% CO2 incubator for 48 hours. After that, cells were removed from the culture dish using trypsin, washed with PBS, and stained with 3 μM fluo-4 in an incubator at 37° C./5% CO2 for 20 minutes, washed with PBS, and then the stained solution was transferred into a FACS tube and the fluorescence intensity was analyzed using a flow cytometer to […].

ES2 cells [17] = test: Mitochondrial membrane potential by JC-1 staining, ES2
Description: as §9

ES2 cells [18] = test: Intracellular calcium concentration by fluo-4 staining, ES2
Description: as §13

[19] = combined treatment with paclitaxel

Compound	proliferative capability (BrdU incorporation) (ES2 cells [1])	PCNA expression (PCNA [2])	proliferative capability (BrdU incorporation) (OV90 cells [3])	PCNA expression (PCNA [4])	proliferative capability reduced by cisplatin (BrdU) (ES2 cells [1])	proliferative capability reduced by paclitaxel (BrdU) (ES2 cells [1])	PCNA expression reduced by cisplatin (PCNA [2])	proliferative capability reduced by cisplatin (BrdU) (OV90 cells [3])	proliferative capability reduced by paclitaxel (BrdU) (OV90 cells [3])	PCNA expression reduced by cisplatin (PCNA [4])	further results
CC(=O)O[C@H]1C(=O)[C@@]2(C)[C@H]([C@H](OC(=O)c3ccccc3)[C@]3(O)C[C@H](OC(=O)[C@H](O)[C@@H](NC(=O)c4ccccc4)c4ccccc4)C(C)=C1C3(C)C)[C@]1(OC(C)=O)CO[C@@H]1C[C@@H]2O [paclitaxel]	reduced	reduced	reduced	reduced							
N.N.[Cl][Pt][Cl] [cisplatin]	reduced	significantly reduced	reduced	significantly reduced							
siLHX6: siRNA that inhibits the expression of LHX6 (SEQ ID NO: 3 sense 5′-GAG UCA UCC UUU UUC AGU A-3′, SEQ ID NO: 4 antisense) (sense GAGUCAUCCUUUUUCAGUA; antisense UACUGAAAAAGGAUGACUC; listed as RNA, chemistry not given here)	significantly increased		significantly increased		restored	restored	restored	restored	restored	restored	increase of proliferative levels (ES2 cells [1]; 40 nM): 1.4 fold; mRNA and protein level expression of PCNA (PCNA [2]; qPCR and immunofluorescence): significantly increased; increase of proliferative levels (OV90 cells [3]; 40 nM): 1.4 fold; mRNA and protein level expression of PCNA (PCNA [4]; qPCR and immunofluorescence): significantly increased
miR-214-3p inhibitor: inhibitor for miR-214-3p (SEQ ID NO: 2: 5′-ACUGCCUGUCUGUGCCUGCUGU-3′) (ACUGCCUGUCUGUGCCUGCUGU; listed as RNA, chemistry not given here)	inhibit the proliferative capability		inhibit the proliferative capability		further reduced	further reduced	further decreased	further reduced	further reduced	further decreased	expression of the target gene LHX6 (LHX6 [5]): increased; increase of apoptotic cells (OV90 cells [6]; 40 nM, p<0.001): 2.6 fold; apoptotic cell death compared to the control group (OV90 cells [6]; transfection): significantly increased; increase of apoptotic cells (ES2 cells [7]; 40 nM, p<0.001): 1.7 fold; apoptotic cell death compared to the control group (ES2 cells [7]; transfection): significantly increased; mitochondrial membrane potential (OV90 cells [8]): induced a change; PCNA expression reduced by paclitaxel (PCNA [2]; [19]): further decreased; reactive oxygen species (OV90 cells [9]): increased; sub-G1 of the cell cycle (OV90 cells [10]): increasing; PCNA expression reduced by paclitaxel (PCNA [4]; [19]): further decreased; cell migration (OV90 cells [11]): reduced; sub-G1 of the cell cycle (ES2 cells [12]): increasing; reactive oxygen species (ES2 cells [13]): increased; expression of the target gene LHX6 (LHX6 [14]): increased; cell migration (ES2 cells [15]): reduced; intracellular calcium ions (OV90 cells [16]): increased; mitochondrial membrane potential (ES2 cells [17]): induced a change; intracellular calcium ions (ES2 cells [18]): increased
